According to the supplement of paper PMC12463676, “Small-molecule dissolution of stress granules by redox modulation benefits ALS models” (Nature Chemical Biology, 2025):

Tests used:
[1] = compound: NC(=O)CCCCC1CCSS1 [lipoamide]; test: thermal stability z-score vs DMSO; higher = more thermally stabilized by treatment; conditions: HeLa, lipoamide concentration 100 µM
Method: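 Cellular thermal proteome profiling in HeLa cells. Cells were treated with 100 µM lipoamide for 1 h, with or without 1 mM arsenate for a further 1 h, then heated to ten temperatures (37-66.3 °C), and soluble protein was quantified by TMT mass spectrometry relative to 0.1% DMSO controls. The thermal stability score (sum of log2 fold changes minus the abundance score) was transformed to a z-score; mean of n = 3 experiments.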

[2] = compound: O=[As]([O-])(O)O.[K+] [potassium arsenate]; test: as above; conditions: HeLa; arsenate concentration 1 mM
Method: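 Cellular thermal proteome profiling in HeLa cells treated with 1 mM arsenate for 1 h (DMSO pretreatment), heated to ten temperatures (37-66.3 °C). Soluble protein was quantified by TMT mass spectrometry relative to DMSO controls; the thermal stability score was transformed to a z-score; mean of n = 3 experiments.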

[3] = arsenate co-treatment: 1 mM arsenate 1 h
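Note: each temperature applied for 3 min, abundance score taken as mean log2 fold change at the two lowest temperatures, z-score obtained by mean subtraction and division by SD.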

Sequence of UniProt Q92544 (Q92544 whole entry): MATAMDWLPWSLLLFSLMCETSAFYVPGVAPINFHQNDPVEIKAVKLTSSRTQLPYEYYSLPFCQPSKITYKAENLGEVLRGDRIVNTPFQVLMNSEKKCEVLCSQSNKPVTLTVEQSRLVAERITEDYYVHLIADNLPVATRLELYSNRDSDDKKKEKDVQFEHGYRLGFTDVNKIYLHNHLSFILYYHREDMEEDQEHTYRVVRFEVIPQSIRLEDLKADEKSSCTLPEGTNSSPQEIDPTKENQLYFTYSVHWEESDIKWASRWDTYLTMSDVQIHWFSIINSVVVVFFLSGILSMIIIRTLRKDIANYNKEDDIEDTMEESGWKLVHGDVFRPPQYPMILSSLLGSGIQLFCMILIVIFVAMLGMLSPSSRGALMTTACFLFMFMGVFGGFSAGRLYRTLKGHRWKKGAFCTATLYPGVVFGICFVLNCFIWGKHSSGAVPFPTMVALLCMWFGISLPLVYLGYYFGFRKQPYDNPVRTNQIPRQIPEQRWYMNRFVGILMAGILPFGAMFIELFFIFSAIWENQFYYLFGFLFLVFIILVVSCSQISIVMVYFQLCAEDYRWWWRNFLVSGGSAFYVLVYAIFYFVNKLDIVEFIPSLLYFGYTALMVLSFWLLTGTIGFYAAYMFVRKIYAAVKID
Sequence of UniProt Q9BTC0 (Q9BTC0 whole entry): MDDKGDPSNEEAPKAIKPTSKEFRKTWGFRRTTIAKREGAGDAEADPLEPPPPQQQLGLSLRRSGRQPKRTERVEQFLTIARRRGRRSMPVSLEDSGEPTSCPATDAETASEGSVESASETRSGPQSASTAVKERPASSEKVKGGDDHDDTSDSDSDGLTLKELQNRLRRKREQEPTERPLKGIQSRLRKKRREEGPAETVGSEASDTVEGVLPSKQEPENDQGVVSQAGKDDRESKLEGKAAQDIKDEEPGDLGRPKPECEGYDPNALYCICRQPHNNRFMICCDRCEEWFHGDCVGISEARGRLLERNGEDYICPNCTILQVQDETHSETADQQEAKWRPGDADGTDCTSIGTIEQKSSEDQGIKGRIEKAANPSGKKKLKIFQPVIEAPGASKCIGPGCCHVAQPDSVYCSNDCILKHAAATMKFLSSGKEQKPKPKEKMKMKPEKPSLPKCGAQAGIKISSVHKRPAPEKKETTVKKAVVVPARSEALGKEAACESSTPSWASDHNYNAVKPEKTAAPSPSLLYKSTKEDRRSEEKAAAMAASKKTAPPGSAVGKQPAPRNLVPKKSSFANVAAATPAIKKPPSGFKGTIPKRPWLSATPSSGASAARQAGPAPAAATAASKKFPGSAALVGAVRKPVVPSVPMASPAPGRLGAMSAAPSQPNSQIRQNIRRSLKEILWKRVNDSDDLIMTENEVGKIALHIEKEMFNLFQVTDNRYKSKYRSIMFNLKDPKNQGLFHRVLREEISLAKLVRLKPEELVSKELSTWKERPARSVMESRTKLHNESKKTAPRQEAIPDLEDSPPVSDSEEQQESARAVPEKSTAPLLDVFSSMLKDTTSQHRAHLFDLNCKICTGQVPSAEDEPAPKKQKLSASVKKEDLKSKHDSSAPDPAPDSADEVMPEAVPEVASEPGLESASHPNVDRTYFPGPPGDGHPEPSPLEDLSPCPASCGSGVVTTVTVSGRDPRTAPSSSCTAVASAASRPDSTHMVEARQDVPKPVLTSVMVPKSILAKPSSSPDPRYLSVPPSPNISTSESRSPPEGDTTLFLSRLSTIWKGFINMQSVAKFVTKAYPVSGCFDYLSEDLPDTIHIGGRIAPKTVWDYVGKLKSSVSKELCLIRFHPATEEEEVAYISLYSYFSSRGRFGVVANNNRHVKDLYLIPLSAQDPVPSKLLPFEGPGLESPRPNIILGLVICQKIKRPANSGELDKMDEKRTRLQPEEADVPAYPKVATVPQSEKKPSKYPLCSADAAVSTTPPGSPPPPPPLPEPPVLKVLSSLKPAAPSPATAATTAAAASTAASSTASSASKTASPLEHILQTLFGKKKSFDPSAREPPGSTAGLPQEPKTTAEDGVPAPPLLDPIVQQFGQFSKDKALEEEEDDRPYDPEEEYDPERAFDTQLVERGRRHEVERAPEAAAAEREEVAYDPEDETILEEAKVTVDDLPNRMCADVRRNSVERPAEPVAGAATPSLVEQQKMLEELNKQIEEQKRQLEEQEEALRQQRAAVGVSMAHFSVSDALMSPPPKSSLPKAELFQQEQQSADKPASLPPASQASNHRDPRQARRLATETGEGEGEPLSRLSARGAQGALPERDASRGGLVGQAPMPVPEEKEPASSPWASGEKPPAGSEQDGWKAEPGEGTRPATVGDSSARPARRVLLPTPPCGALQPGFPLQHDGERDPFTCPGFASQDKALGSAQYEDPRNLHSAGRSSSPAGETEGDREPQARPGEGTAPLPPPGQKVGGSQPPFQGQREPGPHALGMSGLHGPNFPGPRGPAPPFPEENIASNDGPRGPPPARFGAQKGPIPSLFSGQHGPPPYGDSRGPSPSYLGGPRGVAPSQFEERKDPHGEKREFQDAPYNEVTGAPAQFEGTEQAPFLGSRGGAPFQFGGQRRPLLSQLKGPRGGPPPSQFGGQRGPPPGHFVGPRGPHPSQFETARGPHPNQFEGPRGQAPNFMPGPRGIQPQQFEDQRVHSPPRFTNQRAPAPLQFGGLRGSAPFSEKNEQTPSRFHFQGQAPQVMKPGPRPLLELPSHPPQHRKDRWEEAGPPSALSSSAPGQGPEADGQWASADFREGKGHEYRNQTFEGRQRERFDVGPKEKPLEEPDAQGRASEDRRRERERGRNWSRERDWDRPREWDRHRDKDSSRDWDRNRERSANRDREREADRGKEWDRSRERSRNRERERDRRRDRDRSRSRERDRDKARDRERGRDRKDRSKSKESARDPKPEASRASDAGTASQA
Sequence of UniProt Q13596 (Q13596 whole entry): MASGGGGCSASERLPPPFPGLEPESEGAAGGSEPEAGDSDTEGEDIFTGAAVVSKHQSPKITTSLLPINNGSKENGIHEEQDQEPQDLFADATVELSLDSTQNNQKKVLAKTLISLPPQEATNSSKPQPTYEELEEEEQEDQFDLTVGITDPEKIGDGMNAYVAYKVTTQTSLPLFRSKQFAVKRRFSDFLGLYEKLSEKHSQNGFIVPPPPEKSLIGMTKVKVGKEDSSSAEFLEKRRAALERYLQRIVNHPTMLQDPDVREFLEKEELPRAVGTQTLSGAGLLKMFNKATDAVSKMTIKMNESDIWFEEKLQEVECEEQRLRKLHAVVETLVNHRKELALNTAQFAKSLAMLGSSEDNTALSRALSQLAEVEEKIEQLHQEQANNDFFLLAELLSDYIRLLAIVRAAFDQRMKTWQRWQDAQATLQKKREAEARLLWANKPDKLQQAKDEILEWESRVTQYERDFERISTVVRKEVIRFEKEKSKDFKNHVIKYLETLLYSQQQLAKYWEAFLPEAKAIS
Sequence of UniProt Q9Y305 (Q9Y305 whole entry): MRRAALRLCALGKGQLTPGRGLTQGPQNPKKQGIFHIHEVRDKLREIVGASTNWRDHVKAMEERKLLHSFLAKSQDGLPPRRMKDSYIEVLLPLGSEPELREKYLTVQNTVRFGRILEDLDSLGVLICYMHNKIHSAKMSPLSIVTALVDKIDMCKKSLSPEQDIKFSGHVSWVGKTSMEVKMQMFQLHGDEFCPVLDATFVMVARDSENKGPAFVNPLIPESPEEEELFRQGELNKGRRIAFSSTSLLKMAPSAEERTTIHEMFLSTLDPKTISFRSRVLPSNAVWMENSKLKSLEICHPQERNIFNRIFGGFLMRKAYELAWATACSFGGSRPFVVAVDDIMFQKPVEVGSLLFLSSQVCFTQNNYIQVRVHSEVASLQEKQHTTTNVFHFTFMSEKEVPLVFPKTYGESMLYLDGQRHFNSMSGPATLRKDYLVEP
Sequence of UniProt Q8N370 (Q8N370 whole entry, looked up): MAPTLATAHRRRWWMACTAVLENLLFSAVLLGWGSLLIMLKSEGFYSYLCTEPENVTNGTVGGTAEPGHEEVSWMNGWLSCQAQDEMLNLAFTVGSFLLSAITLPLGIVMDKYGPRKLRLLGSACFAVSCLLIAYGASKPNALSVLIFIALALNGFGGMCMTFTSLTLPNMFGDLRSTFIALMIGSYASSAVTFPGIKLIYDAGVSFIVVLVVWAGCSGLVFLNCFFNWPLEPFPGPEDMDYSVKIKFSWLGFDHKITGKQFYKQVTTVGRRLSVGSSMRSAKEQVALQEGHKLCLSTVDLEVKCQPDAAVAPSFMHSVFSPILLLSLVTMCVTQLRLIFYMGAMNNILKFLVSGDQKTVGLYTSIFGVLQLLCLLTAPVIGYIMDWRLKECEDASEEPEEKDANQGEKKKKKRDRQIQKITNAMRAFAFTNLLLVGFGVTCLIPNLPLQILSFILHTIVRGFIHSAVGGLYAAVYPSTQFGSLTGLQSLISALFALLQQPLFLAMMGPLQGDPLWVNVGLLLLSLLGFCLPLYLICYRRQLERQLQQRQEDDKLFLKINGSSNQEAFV
Sequence of UniProt Q8NFV4 (Q8NFV4 whole entry): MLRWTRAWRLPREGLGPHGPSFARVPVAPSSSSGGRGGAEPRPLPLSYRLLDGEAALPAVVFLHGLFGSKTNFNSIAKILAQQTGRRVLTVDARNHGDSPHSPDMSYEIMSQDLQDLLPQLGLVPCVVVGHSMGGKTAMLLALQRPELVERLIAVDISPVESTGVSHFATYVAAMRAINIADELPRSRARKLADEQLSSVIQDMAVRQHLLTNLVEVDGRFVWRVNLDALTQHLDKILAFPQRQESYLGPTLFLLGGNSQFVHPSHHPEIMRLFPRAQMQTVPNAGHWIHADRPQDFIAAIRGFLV
Sequence of UniProt Q5EBL8 (Q5EBL8 whole entry): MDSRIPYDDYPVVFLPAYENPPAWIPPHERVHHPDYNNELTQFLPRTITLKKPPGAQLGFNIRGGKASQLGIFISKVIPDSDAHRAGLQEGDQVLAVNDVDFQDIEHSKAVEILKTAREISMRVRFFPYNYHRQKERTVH
Sequence of UniProt O00258 (O00258 whole entry): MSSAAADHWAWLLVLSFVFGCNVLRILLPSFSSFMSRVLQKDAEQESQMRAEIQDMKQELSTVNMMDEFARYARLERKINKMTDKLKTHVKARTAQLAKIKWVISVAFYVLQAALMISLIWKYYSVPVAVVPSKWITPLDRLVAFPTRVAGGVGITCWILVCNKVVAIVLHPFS

Target | thermal stability z-score [1, 3] | thermal stability z-score ([1]; arsenate co-treatment: none) | thermal stability z-score [2]
CNBP (UniProt P62633) | 0.317 | 0.142 | -0.088
FECH (UniProt P22830) | 0.24 | 0.0849 | -0.203
HIRIP3 (UniProt Q9BW71) | -0.148 | 0.462 | 0.468
VANGL1 (UniProt Q8TAA9) | 0.696 | 0.817 | -0.242
CEBPB (UniProt P17676) | -0.261 | -1.23 | -0.856
TM9SF4 (UniProt Q92544) | -0.593 | -0.263 | 0.734
DIDO1 (UniProt Q9BTC0) | 0.835 | 0.516 | -1.37
HNRNPH1 (UniProt P31943) | -0.365 | 0.482 | -0.9
SPCS3 (UniProt P61009) | -1.66 | -1.75 | 0.879
ERCC1 (UniProt P07992) | -0.168 | 0.0263 | 0.0982
RNF126 (UniProt Q9BV68) | -1 | -1.02 | -2.65
KLHL26 (UniProt Q53HC5) | -0.138 | -0.165 | -0.108
PDZD11 (UniProt Q5EBL8) | -0.0819 | -0.0179 | 0.0963
HMGCS1 (UniProt Q01581) | 1.34 | 0.0808 | 0.164
GPN2 (UniProt Q9H9Y4) | 0.0332 | 0.0213 | -0.222
STRN4 (UniProt Q9NRL3) | -0.136 | 0.198 | 0.937
OXSR1 (UniProt O95747) | 0.903 | 0.68 | -0.408
CD63 (UniProt P08962) | 0.764 | 0.402 | 0.0332

Target | thermal stability z-score [1, 3] | thermal stability z-score ([1]; arsenate co-treatment: none) | thermal stability z-score [2]
RSL1D1 (UniProt O76021) | 0.414 | -0.108 | -0.48
TALDO1 (UniProt P37837) | 0.471 | 0.557 | 0.839
PIK3CB (UniProt P42338) | -0.054 | -0.193 | -0.371
TSC1 (UniProt Q92574) | 0.103 | -0.0297 | -0.0936
ABHD11 (UniProt Q8NFV4) | 0.183 | 0.151 | 0.254
SNX1 (UniProt Q13596) | 0.0174 | -0.29 | 0.327
ACOT9 (UniProt Q9Y305) | 0.00609 | 0.283 | -0.344
WRB (UniProt O00258) | -0.618 | 0.0706 | -0.55
SLC43A2 (UniProt Q8N370) | 0.846 | 1.05 | -1.03
RPL7A (UniProt P62424) | 0.455 | 0.197 | -0.955
PREP (UniProt P48147) | -0.299 | -0.268 | 0.347
RCCD1 (UniProt A6NED2) | 0.452 | 0.179 | -0.297
ELP3 (UniProt Q9H9T3) | 0.0482 | 0.104 | -0.259
ALG6 (UniProt Q9Y672) | 0.3 | 0.171 | -0.233
C16ORF58 (UniProt Q96GQ5) | -0.446 | -0.183 | -0.192
THOC7 (UniProt Q6I9Y2) | 0.192 | 0.175 | -0.26
MEA1 (UniProt Q16626) | 1.48 | 1.28 | 0.711
DTWD2 (UniProt Q8NBA8) | -0.283 | 0.0338 | 0.0974
